Test results as given in US4725600A, “Pyrimidine compounds having activity as a cardiotonic anti-hypertensive cerebrovascular vasodilator and anti-platelet aggregation agent” (Fujisawa Pharmaceutical Co., Ltd., priority 1984, dated 1988).
Like-named read-outs stand apart in the source and are kept apart here.

Legend:
Mongrel dogs = experiment: Cardiotonic activity (Test Method A): percentage of dp/dt max change in anesthetized mongrel dogs; type: in vivo; settings: Canis lupus familiaris, iv, injected into the femoral vein, read-out: dp/dt M.C. (percentage of dp/dt max changes)
Description: Mongrel dogs of either sex were anesthetized with sodium pentobarbital, 35 mg/kg, i.p. The animals were allowed to breathe spontaneously. The left carotid artery was isolated and a catheter (USCI, #8F) filled with heparinized saline was inserted and advanced into the left ventricle. The catheter was connected to a pressure transducer (Nihonkohden, MPU-0.5A) to measure the left ventricular pressure, from which dp/dt max was derived by analog computing. To measure the systemic blood pressure the left femoral artery was cannulated. The blood pressure pulse was used to trigger a heart rate meter. Another catheter was positioned in the vena cave through right femoral vein for injection of drugs. Systemic blood pressure, left ventricular pressure, dp/dt max and heart rate were recorded simultaneously on a polygram (Nihonkohden, RJG-4008).
Test compound was dissolved in distilled water (0.2 ml/kg) or dimethyl sulfoxide (0.04 ml/kg) and injected into the femoral vein. The parameters after dosing were compared with those during the predosing period.
Test results were represented in terms of percentage of dp/dt max changes (dp/dt M.C.) calculated by following formula, and are shown in table 1. [formula]

[1] = system: Platelet rich plasma (PRP); experiment: Anti-platelet activity (Test Method B): inhibition of ADP- or collagen-induced aggregation in rabbit platelet rich plasma; type: cell-based; settings: Oryctolagus cuniculus, 37° C.
Description: Platelet rich plasma (PRP) which contains 6.5-7.5×10^8 platelet/ml was prepared from rabbit blood. To the 200 μl of PRP, 5 μl of calcium chloride (1 mM) and 50 μl of pH 7.4 Tris-acetate solution (5 mM) containing 120 mM NaCl and test compound were added successively, and then stirred for 2 min. at 37° C. To the solution 5 μl of adenosine diphosphate (ADP) (2.5 μM) or collagen (2.5 μg/ml) was added as an agregation inducer. Aggregation was measured by using an aggregometer (NKK HEMA TRACER 1).

male Wistar rats (DOCA) = experiment: Antihypertensive activity (Test Method C): maximum decrease of blood pressure in DOCA-treated uninephrectomized rats; type: in vivo; settings: 1.0 mg/kg, oral; DOCA hypertensive rats, mean arterial pressure
Description: Antihypertensive activity
Five-week old male Wistar rats were uninephrectomized under anesthesia. Deoxycorticosterone acetate (DOCA) (30 mg/kg), suspended in peanut oil, was injected subcutaneously twice a week and 1% saline was substituted for the drinking water. Animals with mean blood pressure 150-200 mmHg were used for experiment between 5 and 7 weeks after surgery.
The test compounds were administered orally. Blood pressure was measured at the femoral artery by means of a pressure transducer and recorded as electrically integrated values of mean arterial pressure.

Row | SMILES | change in vivo at 0.1 mg/kg (Mongrel dogs) | also measured
1 | Nc1cc(-c2ccncc2)c[nH]c1=O [Amrinone, 3-Amino-5-(4-pyridyl)-2(1H)-pyridinone, reference compound] | 9% | –
2 | COc1ccc(-c2cc(=Nc3c(C)cc(C)cc3C)n(C)c(Cl)n2)cc1OC [Example 1, 2-chloro-3,4-dihydro-6-(3,4-dimethoxyphenyl)-3-methyl-4-(2,4,6-trimethylphenylimino)pyrimidine] | 45% | –
3 | COc1ccc(-c2cc(=Nc3c(C)cc(C)cc3C)n(C)cn2)cc1OC [Example 2, 3,4-dihydro-6-(3,4-dimethoxyphenyl)-3-methyl-4-(2,4,6-trimethylphenylimino)pyrimidine] | 114% | IC50 ([1]; aggregation inducer ADP (2.5 μM), pH 7.4, read-out: ID50, ADP): 260 nM; IC50 ([1]; aggregation inducer collagen (2.5 μg/ml), pH 7.4, read-out: ID50, Collagen): 360 nM; Effect Max (mean ratio of maximum decrease of blood pressure) (male Wistar rats (DOCA)): 39.0%
4 | COc1ccc(-c2cc(=Nc3c(C)cc(C)cc3C)n(C)c(N(C)Cc3ccccc3)n2)cc1OC [Example 3, 3,4-dihydro-6-(3,4-dimethoxyphenyl)-3-methyl-2-(N-methyl-N-benzylamino)-4-(2,4,6-trimethylphenylimino)pyrimidine] | 29% | –
5 | COc1ccc(-c2cc(=Nc3c(C)cc(C)cc3C)n(C)c3nncn23)cc1OC [Example 11, 7,8-dihydro-5-(3,4-dimethoxyphenyl)-8-methyl-7-(2,4,6-trimethylphenylimino)-1,2,4-triazolo[4,3-a]pyrimidine] | 60% | –
6 | COc1ccc(-c2cc(=Nc3c(C)cc(C)cc3C)n(C)c3nnnn23)cc1OC [Example 12, 4,5-dihydro-7-(3,4-dimethoxyphenyl)-4-methyl-5-(2,4,6-trimethylphenylimino)tetrazolo[1,5-a]pyrimidine] | 152% | –
7 | COc1ccc(-c2cc(=Nc3c(C)cc(C)cc3C)n(C)c(C)n2)cc1OC [Example 18, 3,4-dihydro-6-(3,4-dimethoxyphenyl)-2,3-dimethyl-4-(2,4,6-trimethylphenylimino)pyrimidine] | 72% | –
8 | COc1ccc(-c2cc(N(C)c3c(C)cc(C)cc3C)nc(C)n2)cc1OC [Examples (17-6) and 20, 6-(3,4-dimethoxyphenyl)-2-methyl-4-[N-methyl-N-(2,4,6-trimethylphenyl)amino]pyrimidine] | 76% | –
9 | CCn1c(C)nc(-c2ccc(OC)c(OC)c2)cc1=Nc1c(C)cc(C)cc1C [Examples (17-12) and (19-12), 3,4-Dihydro-6-(3,4-dimethoxyphenyl)-3-ethyl-2-methyl-4-(2,4,6-trimethylphenylimino)pyrimidine] | 87% | –
